According to patent publication EP0153803A2, “Triazole antifungal agents” (Pfizer Limited, priority 1984, dated 1985):

Tested on: Candida albicans
Experiment: in vivo protection of mice inoculated with Candida albicans (PD50)
Details: Candida albicans, 48 h, vs. Candida albicans in mice; dose giving 50% protection against lethal effect of the infection, 48 hours observation; route not given
Protocol: The in vivo evaluation of the compounds can be carried out at a series of dose levels by intraperitoneal or intravenous injection or by oral administration, to mice which are inoculated with a strain of Candida albicans. Activity is based on the survival of a treated group of mice after the death of an untreated group of mice following 48 hours observation.- The dose level at which the compound provides 50% protection (PD50) against the lethal effect of the infection is noted. Using the test method described in the text, the following PD50 values were obtained vs. Candida albicans in mice:-

Compared with CC(F)(n1cncn1)C(O)(c1ccc(Cl)cc1)c1ccc(F)cc1F (stereo not drawn) [Example 1, 1-(4-Chlorophenyl)-1-(2,4-difluorophenyl)-2-fluoro-2-(1H-3,2,4-triazol-1-yl)propan-1-ol], CC(C)(n1cncn1)C(O)(c1ccc(Cl)cc1)c1ccc(F)cc1F (racemic) [Example 4] is 2.4-fold higher in ED50: 0.95 mg/kg for the first, 2.3 mg/kg for the second.

Compared with CC(n1cncn1)C(O)(c1ccc(F)cc1)c1ccc(F)cc1F (single isomer, unassigned) [Example 2], CC(C)(n1cncn1)C(O)(c1ccc(F)cc1)c1ccc(F)cc1F (racemic) [Example 5] is higher in ED50: less than 1 mg/kg for the first, 2.2 mg/kg for the second.

OC(c1ccc(F)cc1F)(c1ccc(F)cc1F)C(F)n1cncn1 (racemic) [Example 11] and OC(c1ccc(F)cc1)(c1ccc(Cl)cc1Cl)C(F)n1cncn1 (single isomer, unassigned) [Example 9 (diastereomer I)] cannot be ordered by ED50: less than 1 mg/kg for the first, 0.3 mg/kg for the second.

First: OC(c1ccc(F)cc1)(c1ccc(F)cc1)C(F)n1cncn1 (stereo not drawn) [Example 8, 2-Fluoro-1,1-di-(4-fluorophenyl)-2-(1,2,4-triazol-1-yl)ethanol]
Second: CC(C)(n1cncn1)C(O)(c1ccc(F)cc1)c1ccc(F)cc1 [Example 6, 1,1-Bis(4-fluorophenyl)-2-methyl-2-(1H-1,2,4-triazol-1-yl)propan-l-ol]
The ED50 of the first is 5.3-fold lower: 0.3 mg/kg for the first, 1.6 mg/kg for the second.

First: CC(C)(n1cncn1)C(O)(c1ccc(Cl)cc1)c1ccc(Cl)cc1 [Example 3]
Second: OC(c1ccc(Cl)cc1)(c1ccc(Cl)cc1Cl)C(F)n1cncn1 (single isomer, unassigned) [Example 10]
The ED50 of the first is lower: less than 1 mg/kg for the first, 3.2 mg/kg for the second.

Same assay, conditions: vs. Candida albicans in mice; dose giving 50% protection against lethal effect of the infection, 48 hours observation; route not given; 2880 min

Compared with OC(c1ccc(Cl)cc1)(c1ccc(F)cc1F)C(F)n1cncn1 (single isomer, unassigned) [Example 7 (diastereomer II), 1-(4-Chloroghenyl)-1-(2,4-difiuorophenyl)-2-fiuoro-2-(1H-1,2,4-triazol-l-yl)-ethanol], OC(c1ccc(F)cc1)(c1ccc(Cl)cc1Cl)C(F)n1cncn1 (single isomer, unassigned) [Example 9 (diastereomer II)] is 1.7-fold higher in PD50: 0.3 mg/kg for the first, 0.5 mg/kg for the second.

Compared with OC(c1ccc(F)cc1)(c1ccc(F)cc1)C(F)n1cncn1 (single isomer, unassigned) [Example 12(-)], OC(c1ccc(Cl)cc1)(c1ccc(F)cc1F)C(F)n1cncn1 (single isomer, unassigned) [Example 7 (diastereomer I), 1-(4-Chloroghenyl)-1-(2,4-difiuorophenyl)-2-fiuoro-2-(1H-1,2,4-triazol-l-yl)-ethanol] is 8-fold higher in PD50: 0.2 mg/kg for the first, 1.6 mg/kg for the second.

In the case of OC(c1ccc(F)cc1)(c1ccc(F)cc1)C(F)n1cncn1 (single isomer, unassigned) [Example 12(+)], the PD50 is reported as 0.75 mg/kg.
